# Source: PMC5278714, “Safety and Pharmacokinetics of CD101 IV, a Novel Echinocandin, in Healthy Adults” (Antimicrobial Agents and Chemotherapy, 2017)
# Like-named read-outs stand apart in the source and are kept apart here. Numbered stars: 1 amine (or outer) side, 2 acyl side, 3 side chain; on linkers, the order of the positions; unused ones are H or OH. Bridge positions count the residues as written; N and C are the ends. Square brackets hold non-standard residues; d marks the D form. Peptide text beside a SMILES is read from it. * marks the point of attachment. Orn(4R-OH,5R-OCH2CH2NMe3+) = C[N+](C)(C)CCO[C@@H](N[*:3])[C@H](O)C[C@H](N[*:1])C(=O)[*:2]; pTerphenylCO(4''-OnC5H11) = CCCCCOc1ccc(-c2ccc(-c3ccc(C(=O)*)cc3)cc2)cc1; hTyr(3S-OH,4S-OH) = N[C@H](C(=O)O)[C@H](O)[C@@H](O)c1ccc(O)cc1; Pro(3S-OH,4S-Me) = C[C@H]1CN[C@H](C(=O)O)[C@H]1O; Hyp = O=C(O)[C@@H]1C[C@@H](O)CN1
# Experiments:
# Format in all cases: in vivo, humans
# healthy adults [1] = test: Single-ascending-dose phase 1 study: safety and tolerability
# Experimental: (§1) The single-ascending-dose and multiple-ascending-dose studies were phase 1, randomized, double-blind, dose-escalation, placebo-controlled, single-center safety trials of CD101 IV in healthy adults (ClinicalTrials.gov identifiers: NCT02516904 for the single-ascending-dose study; NCT02551549 for the multiple-ascending-dose study). In the single-ascending-dose study, 4 cohorts (corresponding to doses of 50, 100, 200, and 400 mg) of 8 subjects (6 active and 2 placebo) received CD101 IV or placebo infused over 60 (±5) min. In the multiple-ascending-dose study, 3 cohorts (cohort 1, 100 mg ×2 doses; cohort 2, 200 mg ×2 doses; cohort 3, 400 mg ×3 doses) of 8 subjects (6 active and 2 placebo) received CD101 IV or placebo (normal saline solution) infused over 60 (±5) min, with doses separated by 7 days.
# (§2) All subjects were monitored for AEs throughout the study until 21 days after the last dose of study drug. Electrocardiograms, hematology and serum chemistry evaluations, and UA were performed at screening, on day −1, and at various time points during and for 14 days after the dosing period. Subjects remained in the clinical research unit for observation and safety assessments from day −1 until 7 days after the last dose of study drug. Three additional safety assessments were performed at weekly follow-up visits following the last dose of study drug. The long follow-up period ensured that any delayed safety events were captured, since CD101 has a very long t1/2 and plasma levels are expected to persist for several weeks. Safety was assessed ≥5 days after dosing by study physicians to determine whether it was safe to proceed to the next dose.
# (§3) Safety was assessed in the safety analysis population. Safety was evaluated by presenting summaries of AEs, ECGs, clinical laboratory evaluations (hematology evaluation, chemistry panel, and UA), and vital signs. Adverse events were coded using the Medical Dictionary for Regulatory Activities Version 18.0. A TEAE was an AE that occurred during or after study drug administration and up through 21 (±1) days after study drug administration. The incidence of TEAEs was summarized by system organ class and preferred term, by relationship to study drug, and by severity. In addition, the incidence of serious TEAEs and the incidence of TEAEs leading to discontinuation of study drug were summarized by system organ class and preferred term. Descriptive statistics for clinical laboratory test results and vital signs, and for changes from baseline, were summarized by time point. Incidences of potentially clinically significant clinical laboratory results and vital signs were also summarized by time point. The numbers and percentages of abnormal ECGs were summarized by time point.
# healthy adults [2] = test: Multiple-ascending-dose phase 1 study: safety and tolerability
# Experimental: as §1, §2, §3
# [3] = Single-ascending-dose phase 1 study: plasma and urine pharmacokinetics; details: for Vd / clearance / half-life / Cmax: plasma, arithmetic mean; for Vd: iv; for Cmax: LC-MS/MS
# Experimental: as §1
# (§4) Extensive PK sampling from plasma and urine was performed for all subjects following study drug administration and over the 3 weeks after the last dose of study drug. Plasma and urine samples from subjects who received CD101 IV were analyzed by a bioanalytical laboratory for CD101 concentration using a validated liquid chromatography-tandem mass spectrometry method with a lower limit of quantitation of 10 ng/ml.
# (§5) Pharmacokinetics were assessed in the PK analysis population and included Cmax, AUC, Cl, elimination rate constant (λz), and terminal t1/2. Plasma concentration-time profiles were constructed for each subject and dosing cohort. For each plasma concentration-time curve, PK parameters were determined directly from inspection of the data or calculated using noncompartmental methods with validated PK software (Phoenix WinNonlin, Version 6.3). Urine concentration data were used to determine renal excretion and drug recovery rates. The number of subjects was selected to allow sufficient evaluation of safety, tolerability, and PK and was consistent with phase 1 standards of practice ([44]).
# [4] = Multiple-ascending-dose phase 1 study: plasma and urine pharmacokinetics; details: for Vd / clearance / half-life / level at 144 h: plasma; for Vd / clearance / half-life / level at 144 h / dose excreted: iv; for level at 144 h: read-out: trough concentration on day 7 (144 h postdose); for dose excreted: urine
# Experimental: as §1, §4, §5
# [5] = human, single 50 mg IV infusion over 1 h
# [6] = human, single 100 mg IV infusion over 1 h
# [7] = human, single 200 mg IV infusion over 1 h
# [8] = human, single 400 mg IV infusion over 1 h
# [9] = human, 100 mg, 100 mg IV once weekly x2, day 1, sampling interval 144 h, arithmetic mean
# [10] = human, 100 mg, 100 mg IV once weekly x2, day 8, sampling interval 480 h, arithmetic mean
# [11] = human, 200 mg, 200 mg IV once weekly x2, day 1, sampling interval 144 h, arithmetic mean
# [12] = human, 200 mg, 200 mg IV once weekly x2, day 8, sampling interval 480 h, arithmetic mean
# [13] = human, 400 mg, 400 mg IV once weekly x3, day 1, sampling interval 144 h, arithmetic mean
# [14] = human, 400 mg, 400 mg IV once weekly x3, day 15, sampling interval 480 h, arithmetic mean
# [15] = single and multiple doses, all dose levels
structure (smiles),measurement,setting,value
"CCCCCOc1ccc(-c2ccc(-c3ccc(C(=O)N[C@H]4C[C@@H](O)[C@@H](OCC[N+](C)(C)C)NC(=O)[C@@H]5[C@@H](O)[C@@H](C)CN5C(=O)[C@H]([C@@H](C)O)NC(=O)[C@H]([C@H](O)[C@@H](O)c5ccc(O)cc5)NC(=O)[C@@H]5C[C@@H](O)CN5C(=O)[C@H]([C@@H](C)O)NC4=O)cc3)cc2)cc1 [CD101] ({pTerphenylCO(4''-OnC5H11)}-[Orn(4R-OH,5R-OCH2CH2NMe3+)]T[Hyp][hTyr(3S-OH,4S-OH)]T[Pro(3S-OH,4S-Me)]; lactam 1-C)","SAEs, severe AEs, withdrawals due to an AE, deaths","healthy adults [1]; both studies, all dose levels","no serious adverse events (SAEs), severe adverse events (AEs), withdrawals due to an AE, or deaths"
same,"laboratory abnormalities, vital signs, ECG","healthy adults [1]; both studies, all dose levels",no clinically meaningful trends in postbaseline laboratory abnormalities
same,overall safety and tolerability,"healthy adults [1]; both studies, single dose up to 400 mg, multiple doses up to 400 mg once weekly for 3 weeks",safe and well tolerated at all dose levels tested
same,subjects with gastrointestinal disorders (system organ class),healthy adults [1]; cohort 1 (single 50 mg),2 [33%] subjects [%]
same,subjects with musculoskeletal and connective tissue disorders,healthy adults [1]; cohort 1 (single 50 mg),2 [33%] subjects [%]
same,subjects with gastrointestinal disorders (system organ class),healthy adults [1]; cohort 3 (single 200 mg),2 [33%] subjects [%]
same,subjects with general disorders and administration site conditions,healthy adults [1]; cohort 3 (single 200 mg),2 [33%] subjects [%]
same,subjects with musculoskeletal and connective tissue disorders,healthy adults [1]; cohort 3 (single 200 mg),2 subjects
same,subjects with moderate TEAEs,"healthy adults [1]; cohort 3 (single 200 mg), ear pain",1 subject
same,subjects with musculoskeletal and connective tissue disorders,healthy adults [1]; cohort 4 (single 400 mg),1 subject
same,subjects with moderate TEAEs,"healthy adults [1]; cohort 4 (single 400 mg), headache",1 subject
same,"subjects with mild, transient infusion reactions (flushing, feeling hot, nausea, chest tightness)","healthy adults [2]; all CD101 cohorts, primarily cohort 3, most common with third dose",Four
same,subjects with TEAEs related to study drug,healthy adults [2]; cohort 1 (100 mg x2 weeks),1 subject
same,subjects with TEAEs related to study drug,healthy adults [2]; cohort 2 (200 mg x2 weeks),1 subject
same,subjects with moderate TEAEs,"healthy adults [2]; cohort 2 (200 mg x2 weeks), arthropod bite and pruritus",1 subject
same,subjects with TEAEs related to study drug,healthy adults [2]; cohort 3 (400 mg x3 weeks),4 subjects
same,subjects with gastrointestinal disorders (system organ class),healthy adults [2]; cohort 3 (400 mg x3 weeks),4 [67%] subjects [%]
same,subjects with vascular disorders (system organ class),healthy adults [2]; cohort 3 (400 mg x3 weeks),3 [50%] subjects [%]
same,subjects with moderate TEAEs,"healthy adults [2]; cohort 3 (400 mg x3 weeks), constipation and myalgia",2 subjects
same,Vd,"[3]; human, 50 mg, single 50 mg IV infusion over 1 h, read-out: Vss (volume of distribution at steady state)",36 L
same,Vd,"[3]; human, 50 mg, single 50 mg IV infusion over 1 h, read-out: Vz (apparent volume of distribution during terminal phase)",43.2 L
same,Vd,"[3]; human, 100 mg, single 100 mg IV infusion over 1 h, read-out: Vss (volume of distribution at steady state)",42.9 L
same,Vd,"[3]; human, 100 mg, single 100 mg IV infusion over 1 h, read-out: Vz (apparent volume of distribution during terminal phase)",50.6 L
same,Vd,"[3]; human, 200 mg, single 200 mg IV infusion over 1 h, read-out: Vss (volume of distribution at steady state)",34.4 L
same,Vd,"[3]; human, 200 mg, single 200 mg IV infusion over 1 h, read-out: Vz (apparent volume of distribution during terminal phase)",39.7 L
same,Vd,"[3]; human, 400 mg, single 400 mg IV infusion over 1 h, read-out: Vss (volume of distribution at steady state)",35.9 L
same,Vd,"[3]; human, 400 mg, single 400 mg IV infusion over 1 h, read-out: Vz (apparent volume of distribution during terminal phase)",41.6 L
same,clearance,[3]; [5],3.75 mL/min
same,half-life,[3]; [5],133 h
same,Cmax,"[3]; human, single 100 mg IV infusion over 1 h, read-out: Cmax",4860 ng/mL
same,clearance,[3]; [6],4 mL/min
same,half-life,[3]; [6],146 h
same,clearance,[3]; [7],3.65 mL/min
same,half-life,[3]; [7],125 h
same,clearance,[3]; [8],3.77 mL/min
same,half-life,[3]; [8],129 h
same,Cmax,[3]; single 400 mg IV infusion over 1 h,22700 ng/mL
same,mean half-life (t1/2) through the first week (up to day 7) of plasma sampling,[3]; single 50 to 400 mg IV doses,> 80 h
same,Vss,"[4]; 100 mg IV once weekly x2, day 8, arithmetic mean",29.3 L
same,cumulative amount excreted in urine,"[4]; cohort 1 (100 mg x2), day 1",52.0 µg
same,mean renal clearance,"[4]; cohort 1 (100 mg x2), day 1",0.1877 mL/h
same,cumulative amount excreted in urine,"[4]; cohort 1 (100 mg x2), day 8",151.4 µg
same,cumulative amount excreted in urine,"[4]; cohort 2 (200 mg x2), day 1",145.0 µg
same,cumulative amount excreted in urine,"[4]; cohort 2 (200 mg x2), day 8",400.7 µg
same,cumulative amount excreted in urine,"[4]; cohort 3 (400 mg x3), day 1",330.6 µg
same,cumulative amount excreted in urine,"[4]; cohort 3 (400 mg x3), day 15",987.5 µg
same,mean renal clearance,"[4]; cohort 3 (400 mg x3), day 15",0.5965 mL/h
same,"cumulative amount excreted in urine, times higher than on day 1",[4]; days 8 and 15 vs day 1,approximately 3 times
same,t1/2,[4]; following the first dose,approximately 80 h
same,Vd,"[4]; human, 100 mg, 100 mg IV once weekly x2, day 1, arithmetic mean, read-out: Vss",28.8 L
same,Vd,"[4]; human, 100 mg, 100 mg IV once weekly x2, day 1, arithmetic mean, read-out: Vz",29.5 L
same,clearance,[4]; [9],4.3 mL/min
same,half-life,[4]; [9],79.1 h
same,Vd,"[4]; human, 100 mg, 100 mg IV once weekly x2, day 8, arithmetic mean, read-out: Vz",33.8 L
same,clearance,[4]; [10],2.48 mL/min
same,half-life,[4]; [10],158 h
same,Vd,"[4]; human, 200 mg, 200 mg IV once weekly x2, day 1, arithmetic mean, read-out: Vss",31.7 L
same,Vd,"[4]; human, 200 mg, 200 mg IV once weekly x2, day 1, arithmetic mean, read-out: Vz",32.8 L
same,clearance,[4]; [11],4.65 mL/min
same,half-life,[4]; [11],81.3 h
same,Vd,"[4]; human, 200 mg, 200 mg IV once weekly x2, day 8, arithmetic mean, read-out: Vss",28.5 L
same,Vd,"[4]; human, 200 mg, 200 mg IV once weekly x2, day 8, arithmetic mean, read-out: Vz",30.9 L
same,clearance,[4]; [12],2.58 mL/min
same,half-life,[4]; [12],140 h
same,Vd,"[4]; human, 400 mg, 400 mg IV once weekly x3, day 1, arithmetic mean, read-out: Vss",29.6 L
same,Vd,"[4]; human, 400 mg, 400 mg IV once weekly x3, day 1, arithmetic mean, read-out: Vz",31.2 L
same,clearance,[4]; [13],4.47 mL/min
same,half-life,[4]; [13],81 h
same,Vd,"[4]; human, 400 mg, 400 mg IV once weekly x3, day 15, arithmetic mean, read-out: Vss",25.4 L
same,Vd,"[4]; human, 400 mg, 400 mg IV once weekly x3, day 15, arithmetic mean, read-out: Vz",27.9 L
same,clearance,[4]; [14],2.1 mL/min
same,half-life,[4]; [14],152 h
same,level at 144 h,"[4]; human, 400 mg, following the first dose",~4000 ng/mL
same,level at 144 h,"[4]; human, 400 mg, following the third (last) dose",~7000 ng/mL
same,half-life,"[4]; human, following the second or third dose",~150 h
same,dose excreted,"[4]; human, all dose levels, both studies, read-out: fraction of dose excreted",< 1%
same,dose excreted,"[4]; human, LC-MS/MS, read-out: amount of CD101 excreted in urine",≤ 0.26%
same,AUC(0-t),"[4]; human, 200 mg IV once weekly x2, day 1, plasma, arithmetic mean, read-out: AUC0–168",570 µg·h/mL
same,Cmax,"[4]; human, 400 mg IV once weekly x3, day 1, plasma, arithmetic mean",22700 ng/mL
same,apparent clearance,[4]; [15],< 0.28 L/h
same,half-life (t1/2),[4]; [15],> 80 h
